Laboratory results: patent publication US4594329A, “CRF analogs” (The Salk Institute for Biological Studies, priority 1984, dated 1986)
Square brackets hold non-standard residues; d marks the D form. hArg = N=C(N)NCCCC[C@H](N)C(=O)O; Nle = CCCC[C@H](N)C(=O)O; Orn = NCCC[C@H](N)C(=O)O

Legend:
[1] = tested on: secretion of ACTH and β-endorphin; settings: in mammals; cited from earlier work
[2] = in mammals; cited from earlier work
[3] = tested on: cultured rat pituitary cells; experiment: secretion of ACTH and β-endorphin by cultured rat pituitary cells; assay type: cell-based
gastric acid production = settings: cited from earlier work
[4] = lowering of blood pressure, in vivo testing; settings: for lowering of blood pressure compared with rCRF: comparison with rCRF
[5] = tested on: secretion of ACTH and β-endorphin; experiment: stimulation of ACTH and β-endorphin, background statements (in vitro and in vivo); settings: synthetic peptide
[6] = rats; administered into the ventricles; cited from earlier work
[7] = synthetic peptide, extended time period
[8] = general procedure of Example III

CC[C@H](C)[C@H](NC(=O)[C@@H](NC(=O)[C@H](CC(=O)O)NC(=O)[C@H](CC(C)C)NC(=O)[C@H](CC(C)C)NC(=O)[C@H](CC(C)C)NC(=O)[C@H](CCCNC(=N)N)NC(=O)[C@H](CC(N)=O)NC(=O)[C@H](CC(N)=O)NC(=O)[C@H](C)NC(=O)[C@H](C)NC(=O)[C@H](CCC(N)=O)NC(=O)[C@H](CCC(N)=O)NC(=O)[C@H](CCCCN)NC(=O)[C@H](CCC(=O)O)NC(=O)[C@H](CCCCN)NC(=O)[C@H](CCC(=O)O)NC(=O)[C@H](CCC(N)=O)NC(=O)[C@H](CCCCN)NC(=O)[C@H](CCC(=O)O)NC(=O)[C@@H](NC(=O)[C@H](CCC(=O)O)NC(=O)[C@@H](NC(=O)[C@H](CCSC)NC(=O)[C@H](CCCCN)NC(=O)[C@H](CCCNC(=N)N)NC(=O)[C@H](CC(C)C)NC(=O)[C@H](CC(C)C)NC(=O)[C@H](CCC(=O)O)NC(=O)[C@H](CC(C)C)NC(=O)[C@H](CO)NC(=O)[C@H](CC(C)C)NC(=O)[C@H](CC(=O)O)NC(=O)[C@@H](NC(=O)[C@H](CO)NC(=O)[C@@H](NC(=O)[C@@H]1CCCN1C(=O)[C@@H]1CCCN1C(=O)CNC(=O)[C@@H]1CCC(=O)N1)[C@@H](C)CC)[C@@H](C)CC)[C@@H](C)CC)[C@@H](C)CC)[C@@H](C)O)C(N)=O [Sauvagine]
biological activity in stimulating the secretion of ACTH and β-endorphin (reported) [1]: stimulating the secretion of ACTH and β-endorphin
biological activity in lowering blood pressure (reported) [2]: biological activity in lowering blood pressure in mammals

CC[C@H](C)[C@H](NC(=O)[C@H](CC(=O)O)NC(=O)[C@H](CC(C)C)NC(=O)[C@H](CC(C)C)NC(=O)[C@H](CCCCN)NC(=O)[C@H](CCCNC(=N)N)NC(=O)[C@H](CC(N)=O)NC(=O)[C@H](CO)NC(=O)[C@H](Cc1c[nH]cn1)NC(=O)[C@H](C)NC(=O)[C@H](CCC(N)=O)NC(=O)[C@H](CCC(N)=O)NC(=O)[C@H](C)NC(=O)[C@H](CC(C)C)NC(=O)[C@H](CCC(N)=O)NC(=O)[C@H](CC(=O)O)NC(=O)[C@H](C)NC(=O)[C@H](CCCCN)NC(=O)[C@@H](NC(=O)[C@H](CCSC)NC(=O)[C@H](CCC(=O)O)NC(=O)[C@H](CC(C)C)NC(=O)[C@@H](NC(=O)[C@H](CCC(=O)O)NC(=O)[C@H](CCCNC(=N)N)NC(=O)[C@H](CC(C)C)NC(=O)[C@H](CC(C)C)NC(=O)[C@H](Cc1c[nH]cn1)NC(=O)[C@H](Cc1ccccc1)NC(=O)[C@@H](NC(=O)[C@H](CC(C)C)NC(=O)[C@H](CC(=O)O)NC(=O)[C@H](CC(C)C)NC(=O)[C@H](CO)NC(=O)[C@@H](NC(=O)[C@@H]1CCCN1C(=O)[C@@H]1CCCN1C(=O)[C@H](CCC(=O)O)NC(=O)[C@H](CCC(N)=O)NC(=O)[C@@H](N)CO)[C@@H](C)CC)[C@@H](C)O)C(C)C)[C@@H](C)O)C(=O)N[C@@H](C)C(N)=O [oCRF]
EC50 ([3]; cultured rat pituitary cells, read-out: concentration giving half-maximal responses, secretion of ACTH and β-endorphin): ~0.25 nM
gastric acid production (gastric acid production): inhibits gastric acid production
biological activity in stimulating the secretion of ACTH and β-endorphin (reported) [1]: stimulating the secretion of ACTH and β-endorphin
lowering of blood pressure [4, 7]: substantially lower blood pressure for an extended time period
biological activity in lowering blood pressure (reported) [2]: biological activity in lowering blood pressure in mammals
stimulation of ACTH and β-endorphin activities [5]: stimulate ACTH and β-endorphin activities in vitro and in vivo

CC[C@H](C)[C@H](NC(=O)[C@@H](NC(=O)[C@H](CCC(=O)O)NC(=O)[C@H](CCSC)NC(=O)[C@H](CC(C)C)NC(=O)[C@H](CCCCN)NC(=O)[C@H](CCCNC(=N)N)NC(=O)[C@H](CC(N)=O)NC(=O)[C@H](CO)NC(=O)[C@H](Cc1c[nH]cn1)NC(=O)[C@H](C)NC(=O)[C@H](CCC(N)=O)NC(=O)[C@H](CCC(N)=O)NC(=O)[C@H](C)NC(=O)[C@H](CC(C)C)NC(=O)[C@H](CCC(N)=O)NC(=O)[C@H](CCC(=O)O)NC(=O)[C@H](C)NC(=O)[C@H](CCCNC(=N)N)NC(=O)[C@H](C)NC(=O)[C@H](CCSC)NC(=O)[C@H](CCC(=O)O)NC(=O)[C@H](CC(C)C)NC(=O)[C@@H](NC(=O)[C@H](CCC(=O)O)NC(=O)[C@H](CCCNC(=N)N)NC(=O)[C@H](CC(C)C)NC(=O)[C@H](CC(C)C)NC(=O)[C@H](Cc1c[nH]cn1)NC(=O)[C@H](Cc1ccccc1)NC(=O)[C@@H](NC(=O)[C@H](CC(C)C)NC(=O)[C@H](CC(=O)O)NC(=O)[C@H](CC(C)C)NC(=O)[C@H](CO)NC(=O)[C@@H](NC(=O)[C@@H]1CCCN1C(=O)[C@@H]1CCCN1C(=O)[C@H](CCC(=O)O)NC(=O)[C@H](CCC(=O)O)NC(=O)[C@@H](N)CO)[C@@H](C)CC)[C@@H](C)O)C(C)C)[C@@H](C)CC)C(N)=O [rCRF, reference compound]
lowering of blood pressure [4, 7]: substantially lower blood pressure for an extended time period
stimulation of ACTH and β-endorphin activities [5]: stimulate ACTH and β-endorphin activities in vitro and in vivo

CRF: corticotropin releasing factor, the hentetracontapeptide; species not stated at the place (H-SEEPPISLDLTFHLLREVLEMARAEQLAQQAHSNRKLMEII-NH2; ends and bridges not checked; UniProt P06850 154-194, looked up)
activity [6]: increases activity
learning performance [6]: improves learning performance

H-SEEPPISLDLTFHLLREVLE[Nle]ARAEQLAQQAYLNRKLMEEI-NH2 [[Nle^21, Tyr^32, Leu^33, Glu^40]-rCRF]
stimulates the secretion of ACTH and β-END-LI [3, 8]: stimulates the secretion of ACTH and β-END-LI
lowering of blood pressure compared with rCRF [4]: to a greater extent than rCRF
lowering of blood pressure [4, 8]: very significant lowering of blood pressure

H-SEEPPISLDLTFHLLREVLE[Nle]A[hArg]AEQLAQQAHLNRKLMEE[Nle]-NH2
stimulates the secretion of ACTH and β-END-LI [3, 8]: stimulates the secretion of ACTH and β-END-LI
lowering of blood pressure [4, 8]: very significant lowering of blood pressure

H-SEEPPISLDLTLELLREMLEME[Orn]AEKEAEQAALNRLLLEEA-NH2
stimulates the secretion of ACTH and β-END-LI [3, 8]: stimulates the secretion of ACTH and β-END-LI
lowering of blood pressure [4, 8]: very significant lowering of blood pressure

H-SEEPPISLELTFHLLREVLE[Nle]ARAEQLAEQAHLNRKLMEII-NH2 [[Glu^9, Nle^21, Glu^29, Leu^33]-rCRF]
stimulates the secretion of ACTH and β-END-LI [3, 8]: stimulates the secretion of ACTH and β-END-LI
lowering of blood pressure compared with rCRF [4]: to a greater extent than rCRF
lowering of blood pressure [4, 8]: very significant lowering of blood pressure

H-SEEPPIS[Nle]DLSFHLLREVLEMARAEQLAQQAHLNRKLMEEI-NH2 [[Nle^8, Ser^11, Leu^33, Glu^40]-rCRF]
stimulates the secretion of ACTH and β-END-LI [3, 8]: stimulates the secretion of ACTH and β-END-LI
lowering of blood pressure [4, 8]: very significant lowering of blood pressure

H-SQEPPISLDLTFALLREMLEMAKAEQEAEQAALNRLLLEEA-NH2 [[Ala^13]-AHC]
stimulates the secretion of ACTH and β-END-LI [3, 8]: stimulates the secretion of ACTH and β-END-LI
lowering of blood pressure [4, 8]: very significant lowering of blood pressure

H-SQEPPISLDLTFHLLREVLEMTRADQLAQQAHSNRRLLDIA-NH2 [[Arg^23,36]-oCRF]
secretion of ACTH and β-END-LI, amount relative to oCRF ([3]; % of oCRF, general procedure of Example III): about 370%
lowering of blood pressure [4, 8]: very significant lowering of blood pressure

H-SQEPPISLDLTFHLLREVLE[Nle]TKADQLAEQAHSNRKLLDIA-NH2 [[Nle^21,Glu^29]-oCRF]
stimulates the secretion of ACTH and β-END-LI [3, 8]: stimulates the secretion of ACTH and β-END-LI
lowering of blood pressure [4, 8]: very significant lowering of blood pressure

H-SQEPPISLDLTFHLLRE[Nle]LE[Nle]AKAEQEAEQAALNRLLLEEA-NH2 [[Nle^18, 21]-AHC]
stimulates the secretion of ACTH and β-END-LI [3, 8]: stimulates the secretion of ACTH and β-END-LI
lowering of blood pressure [4, 8]: very significant lowering of blood pressure

H-SQEPPISLDLTFHLLRE[Nle]LE[Nle]TKADQLRQQAHSNRKLLDIA-NH2 [[Nle^18,21,Arg^28]-oCRF]
stimulates the secretion of ACTH and β-END-LI [3, 8]: stimulates the secretion of ACTH and β-END-LI
lowering of blood pressure [4, 8]: very significant lowering of blood pressure

H-SQEPPISLDLTLELLREMLEMAKAEQEAEQAALNRLYLEEA-NH2 [[Leu^12, Glu^13, Tyr^37]-AHC]
stimulates the secretion of ACTH and β-END-LI [3, 8]: stimulates the secretion of ACTH and β-END-LI
lowering of blood pressure [4, 8]: very significant lowering of blood pressure

H-SQEPPISLELTFHLLRE[Nle]LE[Nle]AKAEQEAEQAALNRLLLEEA-NH2 [[Glu^9, Nle^18, 21]-AHC]
stimulates the secretion of ACTH and β-END-LI [3, 8]: stimulates the secretion of ACTH and β-END-LI
lowering of blood pressure [4, 8]: very significant lowering of blood pressure

H-SQE[dP]PISLDLTFHLLRE[Nle]LE[Nle]AKAEQEAEQAALNRLLLEEA-NH2 [[D-Pro^4, Nle^18,21]-AHC]
stimulates the secretion of ACTH and β-END-LI [3, 8]: stimulates the secretion of ACTH and β-END-LI
lowering of blood pressure [4, 8]: very significant lowering of blood pressure

H-SQ[dY][dP]PISLDLTFHLLRE[Nle]LE[Nle]AKAEQEAEQAALNRLLLEEA-NH2 [[D-Tyr^3, D-Pro^4, Nle^18, 21]-AHC]
stimulates the secretion of ACTH and β-END-LI [3, 8]: stimulates the secretion of ACTH and β-END-LI
lowering of blood pressure [4, 8]: very significant lowering of blood pressure

H-YSEEPPISLDLTFHLLREVLEMARAEQLAEQAHSNRKLMEII-NH2 [[Tyr-Ser^1, Glu^29]-rCRF]
stimulates the secretion of ACTH and β-END-LI [3, 8]: stimulates the secretion of ACTH and β-END-LI
lowering of blood pressure [4, 8]: very significant lowering of blood pressure
